Experimental data published in ChEMBL document CHEMBL5120852, “New Aβ(1-42) ligands from anti-amyloid antibodies: Design, synthesis, and structural interaction” (Eur J Med Chem, 2022).
Calls of active or inactive are those of the source. The calls are words filed in the database; no cut-off is given here. Where a SMILES comes first, the peptide text is derived from it. [ ]: non-standard residue; d: D form. Aib = CC(C)(N)C(=O)O

Assays:
[1] = target: T1, Amyloid-beta precursor protein (Homo sapiens, UniProt P05067); assay: Disaggregation of 15N-labelled amyloid beta (1 to 42) (unknown origin) expressed in Escherichia coli BL21 (DE3)-pLysS cells in pH 7.4 buffer assessed as absence of bundle of fibrils at 1:20 protein to compound molar ratio incubated for 192 hrs by AFM microscopic analysis
T1 sequence (P05067 whole entry): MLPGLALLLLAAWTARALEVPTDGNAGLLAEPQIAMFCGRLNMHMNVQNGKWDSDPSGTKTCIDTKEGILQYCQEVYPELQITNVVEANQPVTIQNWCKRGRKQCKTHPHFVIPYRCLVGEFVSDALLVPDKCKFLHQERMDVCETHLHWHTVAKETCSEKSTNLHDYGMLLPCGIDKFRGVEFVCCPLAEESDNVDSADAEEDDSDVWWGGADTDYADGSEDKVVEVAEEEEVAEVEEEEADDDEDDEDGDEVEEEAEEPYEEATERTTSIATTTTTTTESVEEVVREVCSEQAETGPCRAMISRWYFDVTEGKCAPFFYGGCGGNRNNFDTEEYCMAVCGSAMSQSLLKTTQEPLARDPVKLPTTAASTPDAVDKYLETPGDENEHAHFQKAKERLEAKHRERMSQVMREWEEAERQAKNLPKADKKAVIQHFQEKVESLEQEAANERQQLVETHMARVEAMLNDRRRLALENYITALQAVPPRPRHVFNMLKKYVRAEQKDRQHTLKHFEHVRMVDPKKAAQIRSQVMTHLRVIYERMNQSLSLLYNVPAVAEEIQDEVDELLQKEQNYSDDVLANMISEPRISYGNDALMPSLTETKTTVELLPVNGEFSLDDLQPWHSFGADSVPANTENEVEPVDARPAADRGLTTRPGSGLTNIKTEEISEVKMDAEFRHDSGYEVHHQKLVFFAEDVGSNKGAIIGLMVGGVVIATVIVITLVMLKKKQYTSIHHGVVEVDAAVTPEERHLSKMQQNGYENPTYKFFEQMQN

[2] = target: T1, Amyloid-beta precursor protein; assay: Inhibition of 15N-labelled amyloid beta (1 to 42) (unknown origin) expressed in Escherichia coli BL21 (DE3)-pLysS cells fibrillization assessed as decrease in indicator of fibrillization (DoF) by AFM microscopic analysis
[3] = target: T1, Amyloid-beta precursor protein; assay: Disaggregation of 15N-labelled amyloid beta (1 to 42) (unknown origin) expressed in Escherichia coli BL21 (DE3)-pLysS cells in pH 7.4 buffer assessed as absence of mature fibrils at 1:20 protein to compound molar ratio incubated for 192 hrs by AFM microscopic analysis
[4] = target: T1, Amyloid-beta precursor protein; assay: Inhibition of 15N-labelled amyloid beta (1 to 42) (unknown origin) expressed in Escherichia coli BL21 (DE3)-pLysS cells fibrillization assessed as absence of mature fibrils at 1:20 protein to compound molar ratio incubated for 192 hrs by AFM microscopic analysis
[5] = target: T1, Amyloid-beta precursor protein; assay: Inhibition of 15N-labelled amyloid beta (1 to 42) (unknown origin) expressed in Escherichia coli BL21 (DE3)-pLysS cells fibrillization assessed as absence of observable number of protofibrils at 1:20 protein to compound molar ratio incubated for 192 hrs by AFM microscopic analysis
[6] = target: T1, Amyloid-beta precursor protein; assay: Binding affinity to 5R to 22E residues of 15N-labelled amyloid beta (1 to 42) (unknown origin) expressed in Escherichia coli BL21 (DE3)-pLysS cells assessed as chemical shift perturbation by measuring dissociation constant by Chemical shift mapping NMR analysis
SH-SY5Y = assay: Neuroprotective activity against amyloid beta (1 to 42)-induced cytotoxicity in human SH-SY5Y cells assessed as increase in cell viability at 0.000001 to 10 mM preincubated with compound for 48 hrs followed by stimulation with amyloid beta(1 to 42) and measured after 18 hrs by MTT assay; type: functional, cell-based; conditions: dose lower 1 nM, dose upper 10.0 mM

Row | Activity [1] | Activity [2] | Activity [3] | inhibition [4] | inhibition [5] | Kd [6] [mM] | Compound | Activity (SH-SY5Y)
1 | Active | 0.03 | Active | Active | Active | 5.74 | CC(C)(NC(=O)[C@@H](N)Cc1c[nH]c2ccccc12)C(=O)N[C@@H](Cc1c[nH]cn1)C(=O)O (H-Trp-[Aib]-His-OH) | Active
2 | Active | 0.06 | Active | Active | Active | 0.65 | H-SYSTPGK-OH | Active
